From ChEMBL document CHEMBL4507263, “Data for DCP probe BAY-474” (2021)

How the values were obtained:
[1] = biological target: Fibroblast growth factor receptor 1 (Homo sapiens) (UniProt P11362); conditions: Compound concentration 1000.0 nM
[2] = biological target: Mitogen-activated protein kinase kinase kinase 20 (Homo sapiens) (UniProt Q9NYL2); conditions: Compound concentration 1000.0 nM
[3] = biological target: Ephrin type-A receptor 8 (Homo sapiens) (UniProt P29322); conditions: Compound concentration 1000.0 nM
[4] = biological target: SRSF protein kinase 3 (Homo sapiens) (UniProt Q9UPE1); conditions: Compound concentration 1000.0 nM
[5] = biological target: Serine/threonine-protein kinase Nek1 (Homo sapiens) (UniProt Q96PY6); conditions: Compound concentration 1000.0 nM
[6] = biological target: Serine/threonine-protein kinase Nek6 (Homo sapiens) (UniProt Q9HC98); conditions: Compound concentration 1000.0 nM
[7] = biological target: Interleukin-1 receptor-associated kinase 4 (Homo sapiens) (UniProt Q9NWZ3); conditions: Compound concentration 1000.0 nM
[8] = biological target: Serine/threonine-protein kinase D1 (Homo sapiens) (UniProt Q15139); conditions: Compound concentration 1000.0 nM
[9] = tested on: Tyrosine-protein kinase ABL1 (Homo sapiens), P00519 [F317I]; conditions: Compound concentration 1000.0 nM
[10] = biological target: Tyrosine-protein kinase JAK3 (Homo sapiens) (UniProt P52333); conditions: Compound concentration 1000.0 nM
[11] = biological target: Ephrin type-A receptor 4 (Homo sapiens) (UniProt P54764); conditions: Compound concentration 1000.0 nM
[12] = biological target: Serine/threonine-protein kinase tousled-like 2 (Homo sapiens) (UniProt Q86UE8); conditions: Compound concentration 1000.0 nM
[13] = tested on: Phosphatidylinositol 4,5-bisphosphate 3-kinase catalytic subunit alpha isoform (Homo sapiens), P42336 [H1047L]; conditions: Compound concentration 1000.0 nM
[14] = biological target: Homeodomain-interacting protein kinase 1 (Homo sapiens) (UniProt Q86Z02); conditions: Compound concentration 1000.0 nM
[15] = biological target: Serine/threonine-protein kinase MARK1 (Homo sapiens) (UniProt Q9P0L2); conditions: Compound concentration 1000.0 nM
[16] = biological target: Dual specificity protein kinase TTK (Homo sapiens) (UniProt P33981); conditions: Compound concentration 1000.0 nM
[17] = biological target: Ankyrin repeat and protein kinase domain-containing protein 1 (Homo sapiens) (UniProt Q8NFD2); conditions: Compound concentration 1000.0 nM
[18] = biological target: Serine/threonine-protein kinase PLK4 (Homo sapiens) (UniProt O00444); conditions: Compound concentration 1000.0 nM
[19] = biological target: Cyclin-dependent kinase 7 (Homo sapiens) (UniProt P50613); conditions: Compound concentration 1000.0 nM
[20] = biological target: Homeodomain-interacting protein kinase 4 (Homo sapiens) (UniProt Q8NE63); conditions: Compound concentration 1000.0 nM
[21] = tested on: Receptor-type tyrosine-protein kinase FLT3 (Homo sapiens), P36888 [N841I]; conditions: Compound concentration 1000.0 nM
[22] = biological target: Calcium/calmodulin-dependent protein kinase type II subunit beta (Homo sapiens) (UniProt Q13554); conditions: Compound concentration 1000.0 nM
[23] = biological target: NUAK family SNF1-like kinase 1 (Homo sapiens) (UniProt O60285); conditions: Compound concentration 1000.0 nM
[24] = biological target: MAP kinase-interacting serine/threonine-protein kinase 1 (Homo sapiens) (UniProt Q9BUB5); conditions: Compound concentration 1000.0 nM
[25] = biological target: Serine/threonine-protein kinase D3 (Homo sapiens) (UniProt O94806); conditions: Compound concentration 1000.0 nM
[26] = biological target: Tyrosine-protein kinase receptor TYRO3 (Homo sapiens) (UniProt Q06418); assay: Rse (h) Millipore kinase activity assay; conditions: Compound concentration 1.0 uM
[27] = biological target: Death-associated protein kinase 1 (Homo sapiens) (UniProt P53355); assay: DAPK1 (h) Millipore kinase activity assay; conditions: Compound concentration 1.0 uM
[28] = biological target: Rho-associated protein kinase 1 (Homo sapiens) (UniProt Q13464); assay: ROCK-I (h) Millipore kinase activity assay; conditions: Compound concentration 1.0 uM
[29] = biological target: Serine/threonine-protein kinase PAK 3 (Homo sapiens) (UniProt O75914); assay: PAK3 (h) Millipore kinase activity assay; conditions: Compound concentration 1.0 uM
[30] = biological target: Tyrosine-protein kinase receptor UFO (Homo sapiens) (UniProt P30530); assay: Axl (h) Millipore kinase activity assay; conditions: Compound concentration 1.0 uM
[31] = biological target: Voltage-dependent N-type calcium channel subunit alpha-1B (Homo sapiens) (UniProt Q00975); assay: Inhibition of Calcium Channel N-Type at 10 µM in the Eurofins-Panlabs radioligand binding assay (Eurofins_assay_216000); conditions: Rattus norvegicus; Compound concentration 10.0 uM
[32] = biological target: T1, 5-hydroxytryptamine receptor 1A (Homo sapiens) (UniProt P08908); conditions: Compound concentration 10.0 uM
T1 sequence (whole entry): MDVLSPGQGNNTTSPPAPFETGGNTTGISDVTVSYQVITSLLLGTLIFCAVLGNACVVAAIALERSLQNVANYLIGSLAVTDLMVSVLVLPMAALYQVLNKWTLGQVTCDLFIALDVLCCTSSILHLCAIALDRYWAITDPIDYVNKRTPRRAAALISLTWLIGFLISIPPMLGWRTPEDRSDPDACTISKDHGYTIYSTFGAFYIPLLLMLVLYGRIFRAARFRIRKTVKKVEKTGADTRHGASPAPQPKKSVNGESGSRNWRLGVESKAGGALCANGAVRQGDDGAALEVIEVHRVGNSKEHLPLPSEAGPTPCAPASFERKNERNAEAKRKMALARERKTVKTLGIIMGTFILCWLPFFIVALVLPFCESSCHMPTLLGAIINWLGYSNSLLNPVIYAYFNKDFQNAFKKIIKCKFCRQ

[33] = biological target: Tyrosine-protein kinase ABL1 (Homo sapiens) (UniProt P00519); assay: Abl (h) Millipore kinase activity assay; conditions: Compound concentration 1.0 uM
[34] = species: Mus musculus; assay: Inhibition of Phorbol Ester at 10 µM in the Eurofins-Panlabs radioligand binding assay (Eurofins_assay_264500); parameters: ligand concentration 3 nM; conditions: Compound concentration 10.0 uM
[35] = biological target: Protein-tyrosine kinase 6 (Homo sapiens) (UniProt Q13882); assay: BRK (h) Millipore kinase activity assay; conditions: Compound concentration 1.0 uM
[36] = biological target: Tyrosine-protein kinase Mer (Homo sapiens) (UniProt Q12866); assay: Mer (h) Millipore kinase activity assay; conditions: Compound concentration 1.0 uM
[37] = biological target: Mitogen-activated protein kinase 1 (Homo sapiens) (UniProt P28482); assay: MAPK1 (h) Millipore kinase activity assay; conditions: Compound concentration 1.0 uM
[38] = species: Mus musculus; assay: Inhibition of Interleukin IL-1 at 10 µM in the Eurofins-Panlabs radioligand binding assay (Eurofins_assay_243520); parameters: ligand concentration 0.1 nM; conditions: Compound concentration 10.0 uM
[39] = biological target: Serine/threonine-protein kinase D1 (Homo sapiens) (UniProt Q15139); assay: PKCmu (h) Millipore kinase activity assay; conditions: Compound concentration 1.0 uM

Sequence of Serine/threonine-protein kinase D1 (Homo sapiens) (Q15139 whole entry): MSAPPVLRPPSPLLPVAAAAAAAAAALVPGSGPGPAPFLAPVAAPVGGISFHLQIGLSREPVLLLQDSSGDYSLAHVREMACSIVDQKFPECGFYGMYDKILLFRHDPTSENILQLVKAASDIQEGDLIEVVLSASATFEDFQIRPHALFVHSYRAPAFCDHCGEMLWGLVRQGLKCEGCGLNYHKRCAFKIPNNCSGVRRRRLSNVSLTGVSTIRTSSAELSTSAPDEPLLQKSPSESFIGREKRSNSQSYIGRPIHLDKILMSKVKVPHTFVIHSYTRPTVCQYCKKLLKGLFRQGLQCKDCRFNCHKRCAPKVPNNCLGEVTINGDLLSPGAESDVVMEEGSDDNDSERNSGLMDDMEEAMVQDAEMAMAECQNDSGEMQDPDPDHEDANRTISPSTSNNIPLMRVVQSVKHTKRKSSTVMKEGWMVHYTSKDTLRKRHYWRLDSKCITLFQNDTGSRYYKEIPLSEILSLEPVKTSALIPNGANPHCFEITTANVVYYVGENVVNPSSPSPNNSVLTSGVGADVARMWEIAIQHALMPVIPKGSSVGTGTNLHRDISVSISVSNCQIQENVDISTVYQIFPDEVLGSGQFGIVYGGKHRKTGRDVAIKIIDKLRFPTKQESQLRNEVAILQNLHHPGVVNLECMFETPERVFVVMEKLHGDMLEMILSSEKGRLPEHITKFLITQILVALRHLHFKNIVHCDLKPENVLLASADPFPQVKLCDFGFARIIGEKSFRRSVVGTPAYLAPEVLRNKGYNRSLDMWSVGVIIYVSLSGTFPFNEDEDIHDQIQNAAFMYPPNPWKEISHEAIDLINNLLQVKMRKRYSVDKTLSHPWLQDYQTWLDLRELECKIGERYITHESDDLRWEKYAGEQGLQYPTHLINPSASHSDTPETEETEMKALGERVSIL
Sequence of Serine/threonine-protein kinase tousled-like 2 (Homo sapiens) (Q86UE8 whole entry, looked up, canonical isoform): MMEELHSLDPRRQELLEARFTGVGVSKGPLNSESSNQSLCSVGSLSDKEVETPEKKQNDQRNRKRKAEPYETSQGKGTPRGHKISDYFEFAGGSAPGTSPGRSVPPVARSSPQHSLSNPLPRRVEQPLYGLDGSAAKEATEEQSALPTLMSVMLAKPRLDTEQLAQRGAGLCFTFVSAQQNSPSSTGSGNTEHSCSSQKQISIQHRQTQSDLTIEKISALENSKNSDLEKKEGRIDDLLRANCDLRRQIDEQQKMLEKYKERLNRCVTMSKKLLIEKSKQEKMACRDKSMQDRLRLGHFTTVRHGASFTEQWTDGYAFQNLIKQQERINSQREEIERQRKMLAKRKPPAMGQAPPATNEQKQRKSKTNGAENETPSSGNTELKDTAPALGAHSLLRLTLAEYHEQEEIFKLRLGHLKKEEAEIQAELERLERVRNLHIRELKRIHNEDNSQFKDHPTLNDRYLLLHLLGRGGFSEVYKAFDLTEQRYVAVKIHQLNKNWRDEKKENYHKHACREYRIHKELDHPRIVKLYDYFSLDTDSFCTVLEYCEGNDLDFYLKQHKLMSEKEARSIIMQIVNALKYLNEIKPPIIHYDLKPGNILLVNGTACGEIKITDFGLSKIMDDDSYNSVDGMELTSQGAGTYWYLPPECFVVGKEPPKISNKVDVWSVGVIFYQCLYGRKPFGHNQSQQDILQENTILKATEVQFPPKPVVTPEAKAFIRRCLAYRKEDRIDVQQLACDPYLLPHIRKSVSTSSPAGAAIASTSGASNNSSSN
Sequence of Serine/threonine-protein kinase Nek1 (Homo sapiens) (Q96PY6 whole entry): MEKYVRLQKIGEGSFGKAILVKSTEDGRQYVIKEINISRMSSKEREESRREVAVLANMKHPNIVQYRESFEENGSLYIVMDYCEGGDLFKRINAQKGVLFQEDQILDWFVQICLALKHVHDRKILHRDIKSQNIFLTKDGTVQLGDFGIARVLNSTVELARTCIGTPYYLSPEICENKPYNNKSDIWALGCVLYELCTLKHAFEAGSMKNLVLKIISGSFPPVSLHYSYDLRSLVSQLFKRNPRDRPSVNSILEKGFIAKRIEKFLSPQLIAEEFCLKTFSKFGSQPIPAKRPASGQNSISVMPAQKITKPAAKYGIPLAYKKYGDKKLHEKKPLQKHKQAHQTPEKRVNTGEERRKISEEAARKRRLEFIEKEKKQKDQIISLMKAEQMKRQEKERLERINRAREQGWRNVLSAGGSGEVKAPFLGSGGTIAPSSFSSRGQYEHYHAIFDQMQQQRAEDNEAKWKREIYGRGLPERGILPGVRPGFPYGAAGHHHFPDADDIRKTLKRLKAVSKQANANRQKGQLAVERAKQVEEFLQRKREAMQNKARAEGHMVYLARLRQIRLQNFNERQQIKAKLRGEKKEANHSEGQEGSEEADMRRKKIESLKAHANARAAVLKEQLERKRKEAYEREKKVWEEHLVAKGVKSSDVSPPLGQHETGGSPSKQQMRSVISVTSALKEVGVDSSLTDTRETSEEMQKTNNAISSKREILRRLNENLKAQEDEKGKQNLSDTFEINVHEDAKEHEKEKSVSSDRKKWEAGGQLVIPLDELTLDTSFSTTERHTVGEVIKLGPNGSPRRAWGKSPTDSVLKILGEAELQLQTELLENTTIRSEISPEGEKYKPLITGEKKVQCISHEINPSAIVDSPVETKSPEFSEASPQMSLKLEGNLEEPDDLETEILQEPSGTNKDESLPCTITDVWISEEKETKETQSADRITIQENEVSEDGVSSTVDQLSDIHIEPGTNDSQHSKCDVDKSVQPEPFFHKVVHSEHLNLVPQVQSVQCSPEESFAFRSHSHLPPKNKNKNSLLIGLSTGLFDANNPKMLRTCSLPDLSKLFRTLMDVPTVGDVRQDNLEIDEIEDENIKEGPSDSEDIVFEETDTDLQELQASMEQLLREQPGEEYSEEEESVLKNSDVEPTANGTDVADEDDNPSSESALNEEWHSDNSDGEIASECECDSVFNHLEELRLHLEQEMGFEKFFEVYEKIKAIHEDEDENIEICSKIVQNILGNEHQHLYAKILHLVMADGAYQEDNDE
Sequence of Homeodomain-interacting protein kinase 4 (Homo sapiens) (Q8NE63 whole entry): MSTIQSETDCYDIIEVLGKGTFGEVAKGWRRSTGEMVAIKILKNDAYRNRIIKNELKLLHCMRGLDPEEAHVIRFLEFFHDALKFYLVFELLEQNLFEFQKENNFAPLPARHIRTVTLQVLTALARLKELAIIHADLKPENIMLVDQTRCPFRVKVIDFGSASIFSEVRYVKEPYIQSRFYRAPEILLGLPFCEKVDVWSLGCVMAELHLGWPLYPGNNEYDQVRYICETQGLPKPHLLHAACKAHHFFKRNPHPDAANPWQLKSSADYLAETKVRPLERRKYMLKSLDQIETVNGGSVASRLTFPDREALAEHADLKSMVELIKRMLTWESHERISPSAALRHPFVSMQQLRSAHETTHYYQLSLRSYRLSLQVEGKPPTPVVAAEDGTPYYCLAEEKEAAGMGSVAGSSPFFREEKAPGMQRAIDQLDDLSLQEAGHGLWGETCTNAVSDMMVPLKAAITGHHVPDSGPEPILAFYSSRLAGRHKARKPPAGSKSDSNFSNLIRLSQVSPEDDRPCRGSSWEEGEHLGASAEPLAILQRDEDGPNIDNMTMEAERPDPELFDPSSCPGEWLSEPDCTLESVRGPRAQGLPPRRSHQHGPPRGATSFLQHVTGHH
Sequence of Mitogen-activated protein kinase kinase kinase 20 (Homo sapiens) (Q9NYL2 2-800 limits assumed): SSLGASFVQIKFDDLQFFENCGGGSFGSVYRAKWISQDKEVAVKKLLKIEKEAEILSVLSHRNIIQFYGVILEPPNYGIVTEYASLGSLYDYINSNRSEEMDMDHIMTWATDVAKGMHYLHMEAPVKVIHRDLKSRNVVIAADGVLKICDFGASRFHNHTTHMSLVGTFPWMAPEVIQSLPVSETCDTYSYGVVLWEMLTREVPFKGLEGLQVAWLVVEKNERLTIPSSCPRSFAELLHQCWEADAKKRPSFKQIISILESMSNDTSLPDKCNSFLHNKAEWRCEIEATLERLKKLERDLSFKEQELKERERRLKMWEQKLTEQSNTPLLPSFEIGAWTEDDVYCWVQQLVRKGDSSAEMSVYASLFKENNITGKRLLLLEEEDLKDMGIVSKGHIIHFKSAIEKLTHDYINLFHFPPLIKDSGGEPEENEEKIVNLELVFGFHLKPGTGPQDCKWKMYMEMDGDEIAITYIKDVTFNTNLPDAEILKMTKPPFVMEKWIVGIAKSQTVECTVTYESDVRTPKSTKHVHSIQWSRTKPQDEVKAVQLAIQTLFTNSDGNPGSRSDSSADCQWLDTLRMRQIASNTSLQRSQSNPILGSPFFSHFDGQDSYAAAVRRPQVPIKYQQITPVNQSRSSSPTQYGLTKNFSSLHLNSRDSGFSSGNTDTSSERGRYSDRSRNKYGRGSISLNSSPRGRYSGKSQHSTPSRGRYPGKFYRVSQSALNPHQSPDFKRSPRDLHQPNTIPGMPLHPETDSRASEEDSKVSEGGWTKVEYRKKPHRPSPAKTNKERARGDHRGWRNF
Sequence of Serine/threonine-protein kinase Nek6 (Homo sapiens) (Q9HC98 whole entry): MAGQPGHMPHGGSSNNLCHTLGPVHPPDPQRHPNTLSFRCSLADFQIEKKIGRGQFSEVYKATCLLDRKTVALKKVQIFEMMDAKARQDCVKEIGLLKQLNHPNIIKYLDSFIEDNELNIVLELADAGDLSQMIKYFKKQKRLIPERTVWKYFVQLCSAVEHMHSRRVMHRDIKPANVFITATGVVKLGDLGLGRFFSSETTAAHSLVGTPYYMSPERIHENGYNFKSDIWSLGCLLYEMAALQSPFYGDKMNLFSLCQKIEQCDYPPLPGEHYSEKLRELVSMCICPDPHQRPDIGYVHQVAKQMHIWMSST
Sequence of Cyclin-dependent kinase 7 (Homo sapiens) (P50613 whole entry): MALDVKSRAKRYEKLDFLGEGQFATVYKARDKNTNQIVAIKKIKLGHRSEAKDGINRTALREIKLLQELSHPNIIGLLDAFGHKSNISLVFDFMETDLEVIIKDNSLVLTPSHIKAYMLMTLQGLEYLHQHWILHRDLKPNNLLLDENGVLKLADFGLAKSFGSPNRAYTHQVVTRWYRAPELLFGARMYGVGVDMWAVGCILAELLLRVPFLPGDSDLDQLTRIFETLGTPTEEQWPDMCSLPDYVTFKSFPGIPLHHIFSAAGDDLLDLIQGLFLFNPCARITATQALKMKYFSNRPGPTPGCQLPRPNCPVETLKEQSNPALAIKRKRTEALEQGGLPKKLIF

CC1=C(C#N)[C@@H](c2ccc3[nH]nc(C)c3c2)C(C#N)=C(c2ccc(Cl)cc2)N1 [BAY-827]
inactive: residual activity [1] 86.6% | residual activity [2] 93.6% | residual activity [3] 100% | residual activity [4] 100% | residual activity [5] 100% | residual activity [6] 100% | residual activity [7] 100% | residual activity [8] 81.1% | residual activity [9] 100% | residual activity [10] 100% | residual activity [11] 96.4% | residual activity [12] 100% | residual activity [13] 100% | residual activity [14] 56.7% | residual activity [15] 91.1% | residual activity [16] 75.7% | residual activity [17] 100% | residual activity [18] 100% | residual activity [19] 100% | residual activity [20] 88.1% | residual activity [21] 100% | residual activity [22] 100% | residual activity [23] 100% | residual activity [24] 100% | residual activity [25] 100%

CC1=C(C#N)C(c2ccc3[nH]nc(C)c3c2)C(C#N)=C(C)N1 [BAY-474]
inactive: inhibition [26] 28% | inhibition [27] 0% | inhibition [28] 1% | inhibition [29] -8% | inhibition [30] 12% | inhibition [31] 6% | inhibition [32] -9% | inhibition [33] -2% | inhibition [34] 4% | inhibition [35] -7% | inhibition [36] 12% | inhibition [37] 4% | inhibition [38] 0% | inhibition [39] 15%
